PMC11396667, “Design, Synthesis, and Anticancer and Antibacterial Activities of Quinoline-5-Sulfonamides” (Molecules, 2024)

Tests used:
[1] = test system: A549 (human lung adenocarcinoma) cells; assay: WST-1 cell viability assay, A549; assay type: cell-based; conditions: WST-1, 72 h exposure, ± SD, n = 6
Experimental: (§1) The synthesized compounds were tested using three cancer cell lines—human amelanotic melanoma (C-32), human breast adenocarcinoma (MDA-MB-231), and human lung adenocarcinoma (A549)—and, for comparison, normal human dermal fibroblasts (HFF-1). The WST-1 (water-soluble tetrazole salt) assay was used to evaluate the effect of the synthesized compounds on the viability of cultured cells.
(§2) Compounds were evaluated for their antiproliferative activity using three cultured cell lines: C-32 (human amelanotic melanoma, ATCC, Manassas, VA, USA), A549 (human lung adenocarcinoma, ATCC, Manassas, VA, USA), MDA-MB-231 (human breast adenocarcinoma derived from metastatic site: pleural effusion, ATCC, Manassas, VA, USA), together with HFF-1 (normal human dermal fibroblasts, ATCC, Manassas, VA, USA). The cultured cells were kept at 37 °C and 5% CO2.
(§3) Cells were seeded in 96-well plates at 5000/well in 100 μL of medium. After 24 h of incubation, the medium was replaced with a new one with the addition of the test substance. After 72 h, the following tests were performed: with crystal violet (determination of the number of adherent cells in the culture), the WST-1 test (determination of the relative number of living cells and their metabolic activity), and the LDH test (determination of the relative number of dead cells in cultures—cytotoxicity of the tested substance).
(§4) WST-1 test: The WST-1 test (Roche Diagnostics, Mannheim, Germany) allows one to determine the relative number of cells in cultures. Absorbance is directly proportional to the number of cells and their metabolic activity. The absorbance measurement is performed at λ = 450 nm (reference wave 600 nm).

[2] = test system: MDA-MB-231 (human breast adenocarcinoma) cells; assay: WST-1 cell viability assay, MDA-MB-231; assay type: cell-based; conditions: WST-1, 72 h exposure, ± SD, n = 6
Experimental: as §1, §2, §3, §4

[3] = test system: C-32 (human amelanotic melanoma) cells; assay: WST-1 cell viability assay, C-32; assay type: cell-based; conditions: WST-1, 72 h exposure, ± SD, n = 6
Experimental: as §1, §2, §3, §4

[4] = test system: HFF-1 (normal human dermal fibroblasts); assay: WST-1 cell viability assay, normal HFF-1; assay type: cell-based; conditions: ± SD, n = 6
Experimental: as §1, §2, §3, §4

[5] = test system: S. aureus ATCC 29213; assay: MTT assay of bacterial respiratory activity; assay type: cell-based, Staphylococcus aureus; conditions: S. aureus ATCC 29213
Excerpt: The MTT assay can be used to assess cell growth by measuring respiration. Bacterial cell respiratory activity (which is ultimately reflected in their viability) of less than 70% after exposure to the MIC values for each test compound is considered as a positive result for this test. This low level of cellular oxidative metabolism indicates inhibition of cell growth by inhibition of respiration. The lowest multiples of the MIC values by which inhibition of S. aureus ATCC 29213 viability [%] greater than 70% was achieved are shown in Table 4. […] Therefore, the antibacterial activity of the discussed compounds cannot be explained solely on the basis of respiration inhibition, so it is very difficult to draw a conclusion regarding the actual mechanism of action, since 8-HQs are multi-target agents, i.e., they affect several different targets at once (as discussed in the section dedicated to anticancer activity), which subsequently leads to the death of the treated resistant microorganisms.
Compounds were prepared as previously stated and diluted in CaMH broth for S. aureus to achieve the desired final concentrations. S. aureus bacterial suspension in sterile distilled water at 0.5 McFarland was diluted 1:3. Inocula were added to each well by multi-inoculator. Diluted mycobacteria in broth free from inhibiting compounds were used as the growth control. All compounds were prepared in duplicate. Plates were incubated at 37 °C for 24 h for S. aureus. After the incubation period, 10% well volume of MTT (3-(4,5-dimethylthiazol-2-yl)-2,5-diphenyltetrazolium bromide) reagent (Sigma) was mixed into each well and incubated at 37 °C 1 h for S. aureus. Then, 100 µL of 17% sodium dodecyl sulphate in 40% dimethylformamide was added to each well. The plates were read at 570 nm. The absorbance readings from the cells grown in the presence of the tested compounds were compared with uninhibited cell growth to determine the relative percent inhibition. The percent inhibition was determined through MTT assay. The percent viability is calculated through the comparison of a measured value and that of the uninhibited control: % viability = OD570E/OD570P × 100, where OD570E is the reading from the compound-exposed cells, while OD570P is the reading from the uninhibited cells (positive control). Cytotoxic potential is determined by a percent viability of <70% [81, 82].

Row | Compound | IC50 ([1]; Homo sapiens, A549) [µM] | melting point [°C] | IC50 ([2]; Homo sapiens, MDA-MB-231) [µM] | IC50 ([3]; Homo sapiens) [µM] | Conc.: lowest multiple of MIC with at least 70% inhibition of respiratory activity [5] [× MIC] | IC50 [1] [µM] | IC50 [2] [µM] | IC50 ([4]; WST-1, 72 h exposure) [µM] | IC50 [3] [µM] | IC50 ([4]; HFF-1, WST-1, 72 h exposure) [µM]
1 | C#CCNS(=O)(=O)c1ccc(OC)c2ncccc12 [6a, 8-Methoxy-N-(prop-2-yn-1-yl)quinoline-5-sulfonamide] | > 100 | 161 to 163 | > 100 | > 100 |  |  |  |  |  | 
2 | C#CC(C)(C)NS(=O)(=O)c1ccc(OC)c2ncccc12 [6b, 8-Methoxy-N-(1,1-dimethyloprop-2-yn-1-yl)quinoline-5-sulfonamide] | > 100 | 217 to 219 | > 100 | 40.6 ± 4.9 |  |  |  |  |  | 
3 | C#CCN(C)S(=O)(=O)c1ccc(OC)c2ncccc12 [6c, 8-Methoxy-N-methyl-N-(prop-2-yn-1-yl)quinoline-5-sulfonamide] | > 100 | 112 to 114 | > 100 | 70.1 ± 8.4 |  |  |  |  |  | 
4 | C#CCOc1ccc(NS(=O)(=O)c2ccc(OC)c3ncccc23)cc1 [6d, 8-Methoxy-N-[4-(prop-2-yn-1-yloxy)phenyl]quinoline-5-sulfonamide] | > 100 | 217 to 219 | > 100 | 86.4 ± 3.9 |  |  |  |  |  | 
5 | C#CCOc1cccc(NS(=O)(=O)c2ccc(OC)c3ncccc23)c1 [6e, 8-Methoxy-N-[3-(prop-2-yn-1-yloxy)phenyl]quinoline-5-sulfonamide] | > 100 | 190 to 192 | > 100 | 32.2 ± 4.8 |  |  |  |  |  | 
6 | C#CCOc1ccccc1NS(=O)(=O)c1ccc(OC)c2ncccc12 [6f, 8-Methoxy-N-[2-(prop-2-yn-1-yloxy)phenyl]quinoline-5-sulfonamide] | > 100 | 187 to 189 | > 100 | 27.7 ± 2.2 |  |  |  |  |  | 
7 | N.N.[Cl][Pt][Cl] [CPT, cisplatin, reference compound] |  |  |  |  |  | 17.3 ± 1.3 | 10.3 ± 0.7 | 26 ± 2 | 10.6 ± 0.5 | 
8 | O=C(O)c1cn(C2CC2)c2cc(N3CCNCC3)c(F)cc2c1=O [CPX, ciprofloxacin, reference compound] |  |  |  |  | 32 |  |  |  |  | 
9 | COc1cccc2c1C(=O)c1c(O)c3c(c(O)c1C2=O)C[C@@](O)(C(=O)CO)C[C@@H]3O[C@H]1C[C@H](N)[C@H](O)[C@H](C)O1 [DOX, doxorubicin, reference compound] | 1 ± 0.1 |  | 0.6 ± 0.1 | 0.3 ± 0.02 |  |  |  |  |  | 1.4 ± 0.1

Continued, in another order:

Row | IC50 ([1]; Homo sapiens, A549) [µM] | melting point [°C] | IC50 ([2]; Homo sapiens, MDA-MB-231) [µM] | IC50 ([3]; Homo sapiens) [µM] | Conc.: lowest multiple of MIC with at least 70% inhibition of respiratory activity [5] [× MIC] | Compound | IC50 [1] [µM] | IC50 [2] [µM] | IC50 ([4]; WST-1, 72 h exposure) [µM] | IC50 [3] [µM] | IC50 ([4]; HFF-1, WST-1, 72 h exposure) [µM]
10 | > 100 | 159 to 161 | > 100 | > 100 |  | C=CCn1cc(CNS(=O)(=O)c2ccc(OC)c3ncccc23)nn1 [7a, N-[(1-Allyl-1H-1,2,3-triazol-4-yl)methyl]-8-methoxyquinoline-5-sulfonamide] |  |  |  |  | 
11 | > 100 | 170 to 172 | > 100 | > 100 |  | COc1ccc(S(=O)(=O)NCc2cn(Cc3ccccc3)nn2)c2cccnc12 [7b, N-[(1-Benzyl-1H-1,2,3-triazol-4-yl)methyl]-8-methoxyquinoline-5-sulfonamide] |  |  |  |  | 
12 | > 100 | 194 to 196 | > 100 | 89 ± 3.5 |  | COc1ccc(S(=O)(=O)NCc2cn(Cc3ccc(F)cc3)nn2)c2cccnc12 [7c, N-{[1-(4-Fluorobenzyl)-1H-1,2,3-triazol-4-yl]methyl}-8-methoxyquinoline-5-sulfonamide] |  |  |  |  | 
13 | > 100 | 224 to 226 | > 100 | > 100 |  | COc1ccc(S(=O)(=O)NCc2cn(-c3ccc(Cl)cc3)nn2)c2cccnc12 [7d, N-{[1-(4-Chlorophenyl)-1H-1,2,3-triazol-4-yl]methyl}-8-methoxyquinoline-5-sulfonamide] |  |  |  |  | 
14 | > 100 | 205 to 207 | 72.2 ± 3.6 | > 100 |  | COc1ccc(S(=O)(=O)NCc2cn(CSc3ccccc3)nn2)c2cccnc12 [7e, N-({1-[(Phenylthio)methyl]-1H-1,2,3-triazol-4-yl}methyl)-8-methoxyquinoline-5-sulfonamide] |  |  |  |  | 
15 | > 100 | 153 to 155 | > 100 | > 100 |  | COc1ccc(S(=O)(=O)NC(C)(C)c2cn(Cc3ccccc3)nn2)c2cccnc12 [7f, N-[2-(1-Benzyl-1H-1,2,3-triazol-4-yl)propan-2-yl]-8-methoxyquinoline-5-sulfonamide] |  |  |  |  | 
16 | > 100 | 214 to 216 | > 100 | 42.6 ± 3.4 |  | COc1ccc(S(=O)(=O)N(C)Cc2cn(Cc3ccccc3)nn2)c2cccnc12 [7g, N-Methyl-N-[(1-benzyl-1H-1,2,3-triazol-4-yl)methyl]-8-methoxyquinoline-5-sulfonamide] |  |  |  |  | 
17 | > 100 | 139 to 141 | > 100 | > 100 |  | COc1ccc(S(=O)(=O)Nc2ccc(OCc3cn(Cc4ccccc4)nn3)cc2)c2cccnc12 [7h, N-{4-[(1-Benzyl-1H-1,2,3-triazol-4-yl)methoxy]phenyl}-8-methoxyquinoline-5-sulfonamide] |  |  |  |  | 
